Here are results for one compound from US9801880B2, “Use of kinase inhibitors” (BerGenBio AS, priority 2013, dated 2017).

For one test, the target named is Abl (Homo sapiens, UniProt P00519). The test can be described thus: biochemical. The text has this:
(§1) Detailed assay methodologies can be found in the relevant references cited herein, or in the KinaseProfiler Service Assay Protocols (v54, 2011) available from EMD Millipore (www.emdmillipore.com), or from the KinomeScan website (www.kinomescan.com), as appropriate. (For a more detailed description of KINOMEscan's assay technology, see: Fabian et al. A small molecule-kinase interaction map for clinical kinase inhibitors. Nat. Biotechnol. 23, 329-336 (2005)). A summary is provided below.
(§2) KinomeScan™ assays (DiscoveRx Corporation, San Diego, Calif., USA) are active-site-directed competition binding assays. […] The amount of kinase captured in test versus control samples is determined by using a qPCR method that detects the associated DNA label on each kinase molecule. Dissociation constants (Kd) for test compound-kinase interactions are calculated by measuring the amount of kinase captured on the solid support as a function of the test compound concentration.

Another test has as its target c-Kit (Homo sapiens, UniProt P10721). The test is described as follows: biochemical.
Description: as §1, §2

The test system of test [1] is Ba/F3 cells expressing the non-mutated Bcr-Abl1 kinase. The test is described as follows: WST-1 cell viability, Ba/F3 cells expressing Bcr-Abl1. The class given is cell-based. As to conditions: Mus musculus, BaF3, 48 hours, serum free. On the procedure:
Ba/F3 cells either stably overexpressing Bcr-Abl1 (A) or the mutant Bcr-Abl1 T315I (B) were cultured overnight in serum free RPMI-1640 media supplemented with 2 mM glutamine, 100 U/mL penicillin and 100 μg/mL streptomycin (Sigma-Aldrich). The following day, cells were plated in a 96-well plate with each well containing 2000 cells in a volume of 100 μl serum free RMPI media. […] The 96 well plates were incubated for 48 hours, and cell viability was measured in a WST-1 assay (Roche). Briefly, 5 μl WST-1 solution was added to each well and the 96-well plate was incubated for another 2 hours. The readout was performed in an ELSA reader at 480 nm. (measure)/620 nm (reference). Subsequent data analysis was performed with Microsoft Excel 2003 and GraphPad Prism 4.0.

For test [2], the system named is T315I-mutated BCR-ABL1 transduced bone marrow cells. The test is described as follows: Preclinical CML model, bone marrow cells transduced with T315I-mutated BCR-ABL1. The test is classed as in vivo. As to conditions: 25 (or 50) mg/Kg twice per day; Balb/c mice. On the procedure:
6- to 8 week old male Balb/c mice were sublethally irradiated and i.v. injected with 0.5×10^6 retroviral transduced BM cells (pMSCV_gfp/BCR-ABL_T315I).
Bone marrow donor mice: To harvest donor bone marrow mice were injected subcutaneously with 5-FU (150 mg/kg mice). The bone marrow was isolated five days later and transduced with the desired retroviral construct. [Daley, G. Q., R. A. Van Etten, and D. Baltimore, Induction of chronic myelogenous leukemia in mice by the P210bcr/abl gene of the Philadelphia chromosome. Science, 1990. 247(4944): p. 824-30.]

The next test concerns BaF3/wt-BCR-ABL cells. The test can be described thus: Subcutaneous BaF3/wt-BCR-ABL tumor model. The settings on record: 25 (or 50) mg/kg twice per day via gavage; NSG mice. The class given is in vivo. On the procedure: 6- to 8-week-old male NSG mice were implanted subcutaneously with 1×10^7 BaF3/wt-BCR-ABL or 1×10^7 BaF3/T315I cells per mouse into the right flank. Five days after implantation mice were randomized into groups with a mean volume of approximately 100 mm^3. […] Tumor volume was measured every 2-3 days. Animals were sacrificed at day 12 and tumors embedded for histology.

The target of a further test is Abl (T315I) (Homo sapiens, UniProt P00519, T315I). The test is described as follows: KinomeScan competition binding assay. Also noted: purchased DiscoveRx Corporation (KinomeScan service).
Description: as §1, §2

The target in the next test is Abl(H396P) (Homo sapiens, UniProt P00519, H396P). The test can be described thus: KinomeScan competition binding assay. Also noted: purchased DiscoveRx Corporation (KinomeScan service).
Description: as §1, §2

The target of a further test is Abl(Q252H) (Homo sapiens, UniProt P00519, Q252H). The test can be described thus: KinomeScan competition binding assay. Also noted: purchased DiscoveRx Corporation (KinomeScan service).
Description: as §1, §2

A further test concerns the target Abl(Y253F) (Homo sapiens, UniProt P00519, Y253F). The test is described as follows: KinomeScan competition binding assay. Set-up: purchased DiscoveRx Corporation (KinomeScan service).
Description: as §1, §2

The target of the next test is Flt1 (Homo sapiens, UniProt P17948). The test is described as follows: KinomeScan competition binding assay. Set-up: purchased DiscoveRx Corporation (KinomeScan service).
Description: as §1, §2

A further test concerns the target Flt3 (Homo sapiens, UniProt P36888). The test can be described thus: KinomeScan competition binding assay. As to conditions: Flt3 wild-type. Set-up: purchased DiscoveRx Corporation (KinomeScan service).
Description: as §1, §2

For a further test, the target named is Flt4 (Homo sapiens, UniProt P35916). The test is described as follows: KinomeScan competition binding assay. Also noted: purchased DiscoveRx Corporation (KinomeScan service).
Description: as §1, §2

The target in a further test is Ret (Homo sapiens, UniProt P07949). The test is described as follows: KinomeScan competition binding assay. Set-up: purchased DiscoveRx Corporation (KinomeScan service).
Description: as §1, §2

The target of another test is Wee1 (Homo sapiens, UniProt P30291). The test is described as follows: KinomeScan competition binding assay. Set-up: purchased DiscoveRx Corporation (KinomeScan service).
Description: as §1, §2

A further test concerns the target Yes (Homo sapiens, UniProt P07947). The test can be described thus: KinomeScan competition binding assay. Set-up: purchased DiscoveRx Corporation (KinomeScan service).
Description: as §1, §2

The target in the next test is c-Kit (D816V) (Homo sapiens, UniProt P10721, D816V). The test can be described thus: KinomeScan competition binding assay. Also noted: purchased DiscoveRx Corporation (KinomeScan service).
Description: as §1, §2

The next test addresses c-Kit (D816H) (Homo sapiens, UniProt P10721, D816H). The test can be described thus: KinaseProfiler kinase activity assay. The class given is biochemical. Set-up: purchased EMD Millipore Corp. (KinaseProfiler service). As to the method:
A summary is provided below.
KinaseProfiler™ assays (EMD Millipore Corp. Billerica, Mass., USA) are […] with purified or partially-purified human kinases. Most of the KinaseProfiler™ assays are conducted in 20 mM MOPS, 1 mM EDTA, 0.01% Brij-35, 5% Glycerol, 0.1% b-mercaptoethanol, 1 mg/mL BSA. The assay involves the transfer of ^32P from γ-^32P-ATP to the target peptide, followed by washing and trapping of the labeled peptide on a filter. The concentration of γ-^32P-ATP used was at the established Km for ATP.

For orientation: Kd means the equilibrium constant for the complex coming apart. The IC50 is the concentration that inhibits the measured activity by half. A lower IC50 goes with higher potency.

c-Kit, sequence (P10721 26-976): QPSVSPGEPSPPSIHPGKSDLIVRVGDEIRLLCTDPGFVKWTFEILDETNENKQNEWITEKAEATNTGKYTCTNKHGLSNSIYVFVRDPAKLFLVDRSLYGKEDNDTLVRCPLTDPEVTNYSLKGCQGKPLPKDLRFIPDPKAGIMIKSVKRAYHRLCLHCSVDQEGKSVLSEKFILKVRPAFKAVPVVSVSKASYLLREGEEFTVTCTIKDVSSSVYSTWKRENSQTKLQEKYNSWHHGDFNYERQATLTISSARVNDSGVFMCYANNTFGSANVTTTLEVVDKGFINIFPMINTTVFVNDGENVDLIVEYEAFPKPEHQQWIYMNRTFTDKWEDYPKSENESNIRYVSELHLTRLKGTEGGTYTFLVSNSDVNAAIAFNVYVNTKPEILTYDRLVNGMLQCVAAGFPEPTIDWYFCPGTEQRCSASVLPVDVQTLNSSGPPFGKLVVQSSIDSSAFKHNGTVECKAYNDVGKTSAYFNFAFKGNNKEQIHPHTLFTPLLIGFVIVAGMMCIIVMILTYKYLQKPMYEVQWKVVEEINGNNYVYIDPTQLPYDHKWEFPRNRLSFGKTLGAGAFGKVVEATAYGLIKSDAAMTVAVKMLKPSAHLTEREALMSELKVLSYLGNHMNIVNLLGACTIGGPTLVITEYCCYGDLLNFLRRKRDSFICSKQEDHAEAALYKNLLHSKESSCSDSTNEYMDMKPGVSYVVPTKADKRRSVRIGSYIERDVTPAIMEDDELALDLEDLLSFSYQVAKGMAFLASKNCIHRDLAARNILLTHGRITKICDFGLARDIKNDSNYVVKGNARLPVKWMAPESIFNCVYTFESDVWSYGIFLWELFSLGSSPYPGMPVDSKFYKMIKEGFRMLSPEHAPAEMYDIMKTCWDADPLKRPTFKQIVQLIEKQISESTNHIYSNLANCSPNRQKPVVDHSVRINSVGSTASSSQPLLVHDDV
Flt4, sequence (P35916 25-1363): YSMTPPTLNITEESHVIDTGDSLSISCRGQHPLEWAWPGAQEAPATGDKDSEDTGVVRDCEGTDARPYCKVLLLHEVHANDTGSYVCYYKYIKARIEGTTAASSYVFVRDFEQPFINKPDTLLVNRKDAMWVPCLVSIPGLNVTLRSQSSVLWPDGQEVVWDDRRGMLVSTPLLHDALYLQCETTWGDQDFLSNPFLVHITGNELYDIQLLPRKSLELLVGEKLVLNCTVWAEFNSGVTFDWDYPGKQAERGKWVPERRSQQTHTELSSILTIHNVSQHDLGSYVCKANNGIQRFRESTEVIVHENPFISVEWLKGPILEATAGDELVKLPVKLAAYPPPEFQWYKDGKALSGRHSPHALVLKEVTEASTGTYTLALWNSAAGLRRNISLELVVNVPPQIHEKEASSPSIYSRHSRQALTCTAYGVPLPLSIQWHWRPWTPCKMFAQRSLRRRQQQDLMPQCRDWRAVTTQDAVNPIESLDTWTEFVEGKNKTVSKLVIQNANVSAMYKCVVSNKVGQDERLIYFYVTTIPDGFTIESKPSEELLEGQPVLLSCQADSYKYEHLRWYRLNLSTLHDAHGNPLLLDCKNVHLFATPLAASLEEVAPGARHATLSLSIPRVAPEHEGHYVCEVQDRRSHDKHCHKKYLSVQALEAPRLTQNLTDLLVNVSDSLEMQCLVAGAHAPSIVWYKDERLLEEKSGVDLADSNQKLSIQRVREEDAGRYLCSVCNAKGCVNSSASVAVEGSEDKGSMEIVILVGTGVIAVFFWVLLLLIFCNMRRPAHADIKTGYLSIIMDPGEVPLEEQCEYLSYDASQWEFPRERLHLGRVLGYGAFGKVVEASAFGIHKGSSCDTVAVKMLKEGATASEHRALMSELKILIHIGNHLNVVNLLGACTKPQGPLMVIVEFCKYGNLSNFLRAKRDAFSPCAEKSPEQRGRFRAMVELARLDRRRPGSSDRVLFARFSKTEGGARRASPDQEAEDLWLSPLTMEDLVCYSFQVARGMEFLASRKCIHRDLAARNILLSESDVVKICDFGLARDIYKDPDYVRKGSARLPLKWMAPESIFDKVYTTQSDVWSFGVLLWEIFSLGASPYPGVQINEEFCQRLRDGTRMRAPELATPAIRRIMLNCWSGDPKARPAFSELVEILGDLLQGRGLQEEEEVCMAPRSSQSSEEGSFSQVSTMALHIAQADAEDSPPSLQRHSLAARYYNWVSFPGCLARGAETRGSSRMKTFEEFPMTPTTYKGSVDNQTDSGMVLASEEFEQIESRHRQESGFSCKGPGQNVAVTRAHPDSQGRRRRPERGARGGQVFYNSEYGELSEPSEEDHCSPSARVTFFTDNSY
c-Kit (D816V), sequence (P10721 26-976 D816V): as the sequence (P10721 26-976) above, with D791V counted along it
Ret, sequence (P07949 29-1114): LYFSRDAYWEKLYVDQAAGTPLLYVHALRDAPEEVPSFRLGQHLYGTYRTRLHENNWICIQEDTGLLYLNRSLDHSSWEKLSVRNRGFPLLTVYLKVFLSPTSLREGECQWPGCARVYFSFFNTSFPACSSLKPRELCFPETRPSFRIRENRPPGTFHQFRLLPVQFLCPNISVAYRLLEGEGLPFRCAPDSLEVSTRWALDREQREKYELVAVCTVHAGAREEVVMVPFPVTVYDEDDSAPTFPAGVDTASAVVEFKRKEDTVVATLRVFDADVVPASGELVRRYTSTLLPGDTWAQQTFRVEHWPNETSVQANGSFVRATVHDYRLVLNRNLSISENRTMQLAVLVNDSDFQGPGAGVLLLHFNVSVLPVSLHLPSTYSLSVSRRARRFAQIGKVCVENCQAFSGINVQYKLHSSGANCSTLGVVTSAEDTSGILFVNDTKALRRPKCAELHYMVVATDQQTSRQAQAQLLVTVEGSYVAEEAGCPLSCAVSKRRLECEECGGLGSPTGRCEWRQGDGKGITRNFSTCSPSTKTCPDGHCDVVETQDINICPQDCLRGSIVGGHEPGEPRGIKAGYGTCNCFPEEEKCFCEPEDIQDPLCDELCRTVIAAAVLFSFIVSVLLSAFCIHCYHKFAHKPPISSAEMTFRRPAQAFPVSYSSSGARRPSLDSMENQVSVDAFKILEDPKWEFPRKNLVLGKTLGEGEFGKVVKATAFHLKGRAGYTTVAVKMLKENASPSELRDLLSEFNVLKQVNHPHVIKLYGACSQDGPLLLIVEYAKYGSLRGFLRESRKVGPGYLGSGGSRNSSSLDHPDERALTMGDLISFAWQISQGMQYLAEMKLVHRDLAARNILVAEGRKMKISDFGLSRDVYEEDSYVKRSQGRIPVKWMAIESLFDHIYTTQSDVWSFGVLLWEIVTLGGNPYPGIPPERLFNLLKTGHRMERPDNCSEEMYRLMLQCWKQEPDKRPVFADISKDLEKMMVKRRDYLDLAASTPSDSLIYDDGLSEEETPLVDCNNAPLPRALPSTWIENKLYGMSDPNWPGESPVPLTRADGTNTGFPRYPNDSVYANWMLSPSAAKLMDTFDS
Wee1, sequence (P30291 whole entry): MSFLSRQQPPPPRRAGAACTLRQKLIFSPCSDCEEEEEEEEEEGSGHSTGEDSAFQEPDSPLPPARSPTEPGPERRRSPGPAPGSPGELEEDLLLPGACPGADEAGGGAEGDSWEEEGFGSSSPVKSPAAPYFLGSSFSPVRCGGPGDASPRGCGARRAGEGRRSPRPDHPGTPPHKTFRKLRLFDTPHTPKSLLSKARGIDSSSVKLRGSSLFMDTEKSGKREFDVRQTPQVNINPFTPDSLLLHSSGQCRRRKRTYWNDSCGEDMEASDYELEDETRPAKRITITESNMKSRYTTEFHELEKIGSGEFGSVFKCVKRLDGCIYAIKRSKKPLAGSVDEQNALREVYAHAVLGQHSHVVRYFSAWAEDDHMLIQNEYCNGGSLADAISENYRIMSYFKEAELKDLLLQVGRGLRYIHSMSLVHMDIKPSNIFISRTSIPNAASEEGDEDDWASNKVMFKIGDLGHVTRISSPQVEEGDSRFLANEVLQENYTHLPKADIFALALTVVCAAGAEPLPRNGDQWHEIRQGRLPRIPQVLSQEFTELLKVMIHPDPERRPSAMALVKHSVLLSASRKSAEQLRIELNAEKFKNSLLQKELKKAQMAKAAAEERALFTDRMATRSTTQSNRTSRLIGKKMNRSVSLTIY
Flt3, sequence (P36888 27-993): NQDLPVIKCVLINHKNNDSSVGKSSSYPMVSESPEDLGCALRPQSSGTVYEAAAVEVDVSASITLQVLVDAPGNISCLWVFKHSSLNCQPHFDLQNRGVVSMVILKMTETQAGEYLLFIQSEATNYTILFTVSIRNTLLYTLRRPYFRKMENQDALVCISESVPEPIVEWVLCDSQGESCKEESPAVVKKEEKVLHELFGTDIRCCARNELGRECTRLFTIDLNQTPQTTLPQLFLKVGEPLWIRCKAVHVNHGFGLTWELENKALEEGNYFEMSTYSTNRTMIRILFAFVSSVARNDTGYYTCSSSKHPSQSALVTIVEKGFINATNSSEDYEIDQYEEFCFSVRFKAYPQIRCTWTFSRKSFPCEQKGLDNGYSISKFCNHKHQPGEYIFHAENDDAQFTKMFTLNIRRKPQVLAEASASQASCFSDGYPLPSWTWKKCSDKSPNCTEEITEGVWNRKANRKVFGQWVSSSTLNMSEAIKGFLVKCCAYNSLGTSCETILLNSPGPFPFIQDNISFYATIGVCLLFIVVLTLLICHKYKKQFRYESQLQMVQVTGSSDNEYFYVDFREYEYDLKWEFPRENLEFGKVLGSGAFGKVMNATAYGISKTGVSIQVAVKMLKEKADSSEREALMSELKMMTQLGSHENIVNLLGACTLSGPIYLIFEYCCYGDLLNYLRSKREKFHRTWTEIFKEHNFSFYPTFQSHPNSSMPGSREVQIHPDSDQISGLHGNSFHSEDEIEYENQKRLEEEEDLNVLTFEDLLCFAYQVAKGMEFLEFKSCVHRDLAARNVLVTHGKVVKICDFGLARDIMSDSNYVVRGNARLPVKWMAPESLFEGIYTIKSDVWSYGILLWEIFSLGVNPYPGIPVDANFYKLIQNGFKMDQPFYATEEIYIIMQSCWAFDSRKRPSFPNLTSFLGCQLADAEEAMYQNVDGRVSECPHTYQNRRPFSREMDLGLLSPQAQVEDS
c-Kit (D816H), sequence (P10721 26-976 D816H): as the sequence (P10721 26-976) above, with D791H counted along it

For the compound `Nc1nc(Nc2ccc3c(c2)CC[C@@H](N2CCCC2)CC3)nn1-c1cc2c(nn1)-c1ccccc1CCC2` [Compound A, 1-(6,7-dihydro-5H-benzo[6,7]cyclohepta[1,2-c]pyridazine-3-yl)-N^3-(7-(S)-(pyrrolidin-1-yl)-6,7,8,9-tetrahydro-5H-benzo[7]annulene-2-yl)-1H-1,2,4-triazole-3,5-diamine], the dissociation constant (Kd) at Abl turned out to be 52 nM; on c-Kit, 104 nM; at Abl (T315I), 10 nM; on Abl(H396P), 57 nM; at Abl(Q252H) it was 112 nM; at Abl(Y253F), 18 nM. The equilibrium dissociation constant (Kd) at Flt1 came to 400 nM; on Flt3, 50 nM; at Flt4, 460 nM; at Ret, 73 nM; at Wee1 it was 17 nM; at Yes it was 810 nM. Also, binding on c-Kit (D816V) was put at a Kd of 10.2 nM. Moreover, the figures for the half-maximal inhibitory concentration (IC50) (in [1]; against c-Kit (D816H)) were 796 nM and 8 nM, respectively. The leukemia cell burden entry in test [2] is given as “reduced leukemia cell burden”. The “inhibition of wild type CML in vivo (tumor volume)” value in the test on BaF3/wt-BCR-ABL cells is recorded as “potentially inhibits”.
